Results reported in patent publication US12662491B2 (Redona Therapeutics, Inc., priority 2020, dated 2026).

The molecules below were run against T1, Zcchc11 enzyme (Homo sapiens, UniProt Q5TAX3) (assay: TUTase assay (Zcchc11 assay, Lin28a-dependent polyuridylation of pre-let-7)). Conditions: Lin28a-dependent Zcchc11 (Z11) TUTase activity; read-out: Potency Lin28a-dep Z11 IC50.
T1 construct: made in house; host or cells: HEK293 cells (Zcchc11); E. coli Rosetta II (LIN28A)
T1 sequence (Q5TAX3 212-1420): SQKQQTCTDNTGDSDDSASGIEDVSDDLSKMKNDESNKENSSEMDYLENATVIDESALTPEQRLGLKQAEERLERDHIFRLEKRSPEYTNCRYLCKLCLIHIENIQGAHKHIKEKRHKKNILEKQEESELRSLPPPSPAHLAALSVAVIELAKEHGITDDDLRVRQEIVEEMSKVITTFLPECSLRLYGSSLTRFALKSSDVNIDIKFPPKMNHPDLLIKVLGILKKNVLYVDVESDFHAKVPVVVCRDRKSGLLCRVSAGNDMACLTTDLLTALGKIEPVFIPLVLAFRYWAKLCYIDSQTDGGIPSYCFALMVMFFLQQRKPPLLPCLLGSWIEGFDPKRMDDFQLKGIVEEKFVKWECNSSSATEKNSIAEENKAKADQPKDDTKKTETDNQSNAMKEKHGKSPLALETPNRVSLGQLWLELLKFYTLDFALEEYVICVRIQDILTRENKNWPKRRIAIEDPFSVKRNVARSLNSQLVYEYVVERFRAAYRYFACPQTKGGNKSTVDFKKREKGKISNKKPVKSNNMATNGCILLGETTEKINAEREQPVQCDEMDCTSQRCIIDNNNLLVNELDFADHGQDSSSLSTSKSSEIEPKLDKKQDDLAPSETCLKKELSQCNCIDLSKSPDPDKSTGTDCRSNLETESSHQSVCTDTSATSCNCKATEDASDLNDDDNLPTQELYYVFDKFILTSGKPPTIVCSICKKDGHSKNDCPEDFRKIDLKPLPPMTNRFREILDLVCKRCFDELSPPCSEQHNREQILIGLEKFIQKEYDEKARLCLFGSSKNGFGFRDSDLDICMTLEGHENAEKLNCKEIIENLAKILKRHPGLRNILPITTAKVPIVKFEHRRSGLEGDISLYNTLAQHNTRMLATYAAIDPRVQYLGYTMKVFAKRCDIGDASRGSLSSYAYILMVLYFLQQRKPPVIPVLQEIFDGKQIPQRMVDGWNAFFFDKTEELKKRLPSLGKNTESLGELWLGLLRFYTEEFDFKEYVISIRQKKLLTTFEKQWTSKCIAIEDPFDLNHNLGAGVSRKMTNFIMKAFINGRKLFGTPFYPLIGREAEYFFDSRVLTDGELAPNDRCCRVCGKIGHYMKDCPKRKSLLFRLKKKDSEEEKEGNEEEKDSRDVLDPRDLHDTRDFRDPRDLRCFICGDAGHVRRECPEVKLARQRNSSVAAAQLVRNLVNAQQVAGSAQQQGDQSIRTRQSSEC
Type: biochemical
Summary of the method: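 Human Zcchc11 residues 212-1420 (HEK293-expressed, MBP tag cleaved, C-terminal FLAG) at 0.2 nM, with 10 nM full-length human LIN28A and 2 nM 5′-fluorescein pre-let-7, preincubated with compound 30 min at room temperature. Reaction started with 5 uM UTP plus 4 nM 3′-rhodamine A20 quench probe; fluorescein loss read kinetically, IC50 from initial rates.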

SMILES | IC50
Cc1cccnc1OC[C@H]1CCCN1c1cc2c(cc1F)c(=O)c(C(=O)O)cn2-c1ccc(O)cc1F [Compound 101, (R)-6-fluoro-1-(2-fluoro-4-hydroxy-phenyl)-7-(2-(((3-methyl-pyridin-2-yl)oxy)methyl)pyrrolidin-1-yl)-4-oxo-1,4-dihydro-quinoline-3-carboxylic acid] | ≤ 1000 nM
Cc1cccnc1OC[C@H]1CCCN1c1cc2c(cc1F)c(=O)c(C(=O)O)cn2C1CC1 [Compound 102, (R)-1-cyclopropyl-6-fluoro-7-(2-(((3-methyl-pyridin-2-yl)oxy)methyl)pyrrolidin-1-yl)-4-oxo-1,4-dihydro-quinoline-3-carboxylic acid] | ≤ 1000 nM
Cc1cccnc1OC[C@H]1CCCN1c1cc2c(cc1Cl)c(=O)c(C(=O)O)cn2-c1ccccc1 [Compound 103, (R)-6-chloro-7-(2-(((3-methyl-pyridin-2-yl)oxy)methyl)pyrrolidin-1-yl)-4-oxo-1-phenyl-1,4-dihydro-quinoline-3-carboxylic acid] | ≤ 1000 nM
Cc1cccnc1OC[C@H]1CCCN1c1cc2c(cc1Cl)c(=O)c(C(=O)O)cn2-c1ccc(O)cc1 [Compound 104, (R)-6-chloro-1-(4-hydroxy-phenyl)-7-(2-(((3-methyl-pyridin-2-yl)oxy)methyl)pyrrolidin-1-yl)-4-oxo-1,4-dihydro-quinoline-3-carboxylic acid] | ≤ 1000 nM
Cc1ccccc1OC[C@H]1CCCN1c1cc2c(cc1F)c(=O)c(C(=O)O)cn2-c1ccc(O)cc1 [Compound 105, (R)-6-fluoro-1-(4-hydroxy-phenyl)-4-oxo-7-(2-((o-tolyloxy)methyl)pyrrolidin-1-yl)-1,4-dihydro-quinoline-3-carboxylic acid] | 1000 to 10000 nM
Cc1cccc(C)c1OC[C@H]1CCCN1c1cc2c(cc1F)c(=O)c(C(=O)O)cn2-c1ccc(O)cc1 [Compound 106, (R)-7-(2-((2,6-dimethyl-phenoxy)methyl)pyrrolidin-1-yl)-6-fluoro-1-(4-hydroxy-phenyl)-4-oxo-1,4-dihydro-quinoline-3-carboxylic acid] | > 50000 nM
O=C(O)c1cn(-c2ccc(O)cc2)c2cc(N3CCC[C@@H]3COc3ccccc3Cl)c(F)cc2c1=O [Compound 107, (R)-7-(2-((2-chlorophenoxy)methyl)pyrrolidin-1-yl)-6-fluoro-1-(4-hydroxy-phenyl)-4-oxo-1,4-dihydro-quinoline-3-carboxylic acid] | 1000 to 10000 nM
CC1(n2cc(C(=O)O)c(=O)c3cc(Cl)c(N4CCC4COc4ccccn4)cc32)CC1 (centres unmarked) [Compound 108, 6-chloro-1-(1-methyl-cyclopropyl)-4-oxo-7-(2-((pyridin-2-yloxy)methyl)azetidin-1-yl)-1,4-dihydro-quinoline-3-carboxylic acid] | 10000 to 50000 nM
O=C(O)c1cn(-c2ccccc2)c2cc(N3CCC[C@@H]3COc3ncccc3Cl)c(Cl)cc2c1=O [Compound 109, (R)-6-chloro-7-(2-(((3-chloropyridin-2-yl)oxy)methyl)pyrrolidin-1-yl)-4-oxo-1-phenyl-1,4-dihydro-quinoline-3-carboxylic acid] | ≤ 1000 nM
N#Cc1cccnc1OC[C@H]1CCCN1c1cc2c(cc1Cl)c(=O)c(C(=O)O)cn2-c1ccccc1 [Compound 110, (R)-6-chloro-7-(2-(((3-cyanopyridin-2-yl)oxy)methyl)pyrrolidin-1-yl)-4-oxo-1-phenyl-1,4-dihydro-quinoline-3-carboxylic acid] | ≤ 1000 nM
O=C(O)c1cn(C2CC2)c2cc(N3CCC[C@@H]3COc3ccccn3)c(Cl)cc2c1=O [Compound 111, (R)-6-chloro-1-cyclopropyl-4-oxo-7-(2-((pyridin-2-yloxy)methyl)pyrrolidin-1-yl)-1,4-dihydro-quinoline-3-carboxylic acid] | 1000 to 10000 nM
O=C(O)c1cn(-c2ccc(O)cc2)c2cc(N3CCC[C@@H]3CNc3ncccc3Cl)c(F)cc2c1=O [Compound 112, (R)-7-(2-(((3-chloropyridin-2-yl)amino)methyl)pyrrolidin-1-yl)-6-fluoro-1-(4-hydroxy-phenyl)-4-oxo-1,4-dihydro-quinoline-3-carboxylic acid] | ≤ 1000 nM
O=C(O)c1cn(-c2ccc(O)cc2)c2cc(N3CCC[C@@H]3Cn3ccc4cccnc43)c(F)cc2c1=O [Compound 113, (R)-7-(2-((1H-pyrrolo[2,3-b]pyridin-1-yl)methyl)pyrrolidin-1-yl)-6-fluoro-1-(4-hydroxy-phenyl)-4-oxo-1,4-dihydro-quinoline-3-carboxylic acid] | ≤ 1000 nM
CC1(n2cc(C(=O)O)c(=O)c3cc(Cl)c(N4CCC[C@@H]4CN4CCOCC4)cc32)CC1 [Compound 114, (R)-6-chloro-1-(1-methylcyclo-propyl)-7-(2-(morpholino-methyl)pyrrolidin-1-yl)-4-oxo-1,4-dihydro-quinoline-3-carboxylic acid] | > 50000 nM
CC1(n2cc(C(=O)O)c(=O)c3cc(Cl)c(N4CCC[C@@H]4CN4CCc5cccnc54)cc32)CC1 [Compound 115, (R)-6-chloro-7-(2-((2,3-dihydro-1H-pyrrolo[2,3-b]pyridin-1-yl)methyl)pyrrolidin-1-yl)-1-(1-methylcyclo-propyl)-4-oxo-1,4-dihydro-quinoline-3-carboxylic acid] | 1000 to 10000 nM
O=C(O)c1cn(-c2ccc(O)cc2)c2cc(N3CCC[C@@H]3COc3nccc4[nH]cnc34)c(F)cc2c1=O [Compound 116, (R)-7-(2-(((1H-imidazo[4,5-c]pyridin-4-yl)oxy)methyl)pyrrolidin-1-yl)-6-fluoro-1-(4-hydroxy-phenyl)-4-oxo-1,4-dihydro-quinoline-3-carboxylic acid] | 1000 to 10000 nM
O=C(O)c1cn(-c2ccc(O)cc2)c2cc(N3CCC[C@@H]3COc3nccc4cc[nH]c34)c(F)cc2c1=O [Compound 117, (R)-7-(2-(((1H-pyrrolo[2,3-c]pyridin-7-yl)oxy)methyl)pyrrolidin-1-yl)-6-fluoro-1-(4-hydroxy-phenyl)-4-oxo-1,4-dihydro-quinoline-3-carboxylic acid] | ≤ 1000 nM
O=C(O)c1cn(-c2ccc(O)cc2)c2cc(N3CCC[C@@H]3COc3cc4cc[nH]c4cn3)c(F)cc2c1=O [Compound 118, (R)-7-(2-(((1H-pyrrolo[2,3-c]pyridin-5-yl)oxy)methyl)pyrrolidin-1-yl)-6-fluoro-1-(4-hydroxy-phenyl)-4-oxo-1,4-dihydro-quinoline-3-carboxylic acid] | ≤ 1000 nM
Cc1cccnc1OC[C@H]1CCCN1c1cc2c(cc1F)c(=O)c(C(=O)O)cn2-c1ccc(O)cc1 [Compound 119, (R)-6-fluoro-1-(4-hydroxy-phenyl)-7-(2-(((3-methylpyridin-2-yl)oxy)methyl)pyrrolidin-1-yl)-4-oxo-1,4-dihydro-quinoline-3-carboxylic acid] | ≤ 1000 nM
Cc1cccnc1OC[C@H]1CCCN1c1cc2c(cc1F)c(=O)c(C(=O)O)cn2-c1ccc(O)c(F)c1 [Compound 120, (R)-6-fluoro-1-(3-fluoro-4-hydroxy-phenyl)-7-(2-(((3-methylpyridin-2-yl)oxy)methyl)pyrrolidin-1-yl)-4-oxo-1,4-dihydro-quinoline-3-carboxylic acid] | ≤ 1000 nM
Cc1cccnc1OC[C@H]1CCCN1c1cc2c(cc1F)c(=O)c(C(=O)O)cn2-c1ccc(F)c(O)c1 [Compound 121, (R)-6-fluoro-1-(4-fluoro-3-hydroxy-phenyl)-7-(2-(((3-methylpyridin-2-yl)oxy)methyl)pyrrolidin-1-yl)-4-oxo-1,4-dihydro-quinoline-3-carboxylic acid] | ≤ 1000 nM
Cc1cccnc1OC[C@H]1CCCN1c1cc2c(cc1F)c(=O)c(C(=O)O)cn2-c1ccc(O)c(Cl)c1 [Compound 122, (R)-1-(3-chloro-4-hydroxy-phenyl)-6-fluoro-7-(2-(((3-methylpyridin-2-yl)oxy)methyl)pyrrolidin-1-yl)-4-oxo-1,4-dihydro-quinoline-3-carboxylic acid] | ≤ 1000 nM
Cc1cccnc1OC[C@H]1CCCN1c1cc2c(cc1F)c(=O)c(C(=O)O)cn2-c1ccc(CO)cc1F [Compound 123, (R)-6-fluoro-1-(2-fluoro-4-(hydroxy-methyl)phenyl)-7-(2-(((3-methylpyridin-2-yl)oxy)methyl)pyrrolidin-1-yl)-4-oxo-1,4-dihydro-quinoline-3-carboxylic acid] | ≤ 1000 nM
